Results from PubChem BioAssay AID1963964 (Molecular Pharmacology Branch, DTP, NCI, 2024).
pIC50: −log10 of the molar value. One block for each compound: values may come before it.

Test system: 997726-040-R-J2-PDC tumor spheroids, viability
Assay: Anticancer human tumor 997726-040-R-J2-PDC patient-derived squamous cell lung carcinoma cell line growth inhibition [PI3K]
Conditions: spheroids with HUVEC and MSC; for pIC50: curve of first compound; for viability, T/C: stronger effect = lower value
Method in brief: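 Targeted small molecules plus PI3K inhibitors, half-log dose series from Cmax (default top 10 microM), were applied to heterotypic spheroids of cancer cells with HUVEC and MSCs. Viability indicated growth inhibition.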

[1] = second compound 0.0316 µM, first compound 0.0316 µM
[2] = second compound 0.0316 µM, first compound 0.1 µM
[3] = second compound 0.0316 µM, first compound 0.316 µM
[4] = second compound 0.0316 µM, first compound 1 µM
[5] = second compound 0.0316 µM, first compound 3.16 µM
[6] = second compound 0.0316 µM, first compound 10 µM
[7] = second compound 0.1 µM, first compound 0.0316 µM
[8] = second compound 0.1 µM, first compound 0.1 µM
[9] = second compound 0.1 µM, first compound 0.316 µM
[10] = second compound 0.1 µM, first compound 1 µM
[11] = second compound 0.1 µM, first compound 3.16 µM
[12] = second compound 0.1 µM, first compound 10 µM
[13] = second compound 0.316 µM, first compound 0.0316 µM
[14] = second compound 0.316 µM, first compound 0.1 µM
[15] = second compound 0.316 µM, first compound 0.316 µM
[16] = second compound 0.316 µM, first compound 1 µM
[17] = second compound 0.316 µM, first compound 3.16 µM
[18] = second compound 0.316 µM, first compound 10 µM
[19] = second compound 1 µM, first compound 0.0316 µM
[20] = second compound 1 µM, first compound 0.1 µM
[21] = second compound 1 µM, first compound 0.316 µM
[22] = second compound 1 µM, first compound 1 µM
[23] = second compound 1 µM, first compound 3.16 µM
[24] = second compound 1 µM, first compound 10 µM
[25] = second compound 3.16 µM, first compound 0.0316 µM
[26] = second compound 3.16 µM, first compound 0.1 µM
[27] = second compound 3.16 µM, first compound 0.316 µM
[28] = second compound 3.16 µM, first compound 1 µM
[29] = second compound 3.16 µM, first compound 3.16 µM
[30] = second compound 3.16 µM, first compound 10 µM
[31] = second compound 10 µM, first compound 0.0316 µM
[32] = second compound 10 µM, first compound 0.1 µM
[33] = second compound 10 µM, first compound 0.316 µM
[34] = second compound 10 µM, first compound 1 µM
[35] = second compound 10 µM, first compound 3.16 µM
[36] = second compound 10 µM, first compound 10 µM
[37] = second compound 0.0316 µM, first compound 0.00316 µM
[38] = second compound 0.0316 µM, first compound 0.01 µM
[39] = second compound 0.1 µM, first compound 0.00316 µM
[40] = second compound 0.1 µM, first compound 0.01 µM
[41] = second compound 0.316 µM, first compound 0.00316 µM
[42] = second compound 0.316 µM, first compound 0.01 µM
[43] = second compound 1 µM, first compound 0.00316 µM
[44] = second compound 1 µM, first compound 0.01 µM
[45] = second compound 3.16 µM, first compound 0.00316 µM
[46] = second compound 3.16 µM, first compound 0.01 µM
[47] = second compound 10 µM, first compound 0.00316 µM
[48] = second compound 10 µM, first compound 0.01 µM
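Further: spheroids exposed to compounds for seven days before readout.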

- pIC50 (second compound 0.0316 µM): 6.41
- pIC50 (second compound 0.1 µM): 6.40
- pIC50 (second compound 0.316 µM): 6.40
- pIC50 (second compound 1 µM): 6.53
- pIC50 (second compound 3.16 µM): 6.56
- pIC50 (second compound 10 µM): 7.25
Compound: CC(C)NCC(C(=O)N1CCN(c2ncnc3c2C(C)CC3O)CC1)c1ccc(Cl)cc1 (stereo not drawn) + CC(Nc1ncnc2nc[nH]c12)c1cc2cccc(Cl)c2c(=O)n1-c1ccccc1
- viability, T/C [1]: 82.7%
- viability, T/C [2]: 74.3%
- viability, T/C [3]: 54.4%
- viability, T/C [4]: 29.7%
- viability, T/C [5]: 14.6%
- viability, T/C [6]: 10.8%
- viability, T/C [7]: 79.5%
- viability, T/C [8]: 85.4%
- viability, T/C [9]: 50.1%
- viability, T/C [10]: 31.6%
- viability, T/C [11]: 12.7%
- viability, T/C [12]: 10.7%
- viability, T/C [13]: 87.1%
- viability, T/C [14]: 87.3%
- viability, T/C [15]: 53.1%
- viability, T/C [16]: 27.4%
- viability, T/C [17]: 15.5%
- viability, T/C [18]: 9.73%
- viability, T/C [19]: 88.9%
- viability, T/C [20]: 69.2%
- viability, T/C [21]: 48.7%
- viability, T/C [22]: 32%
- viability, T/C [23]: 15%
- viability, T/C [24]: 9.4%
- viability, T/C [25]: 80.1%
- viability, T/C [26]: 69.6%
- viability, T/C [27]: 46.3%
- viability, T/C [28]: 28.3%
- viability, T/C [29]: 15.3%
- viability, T/C [30]: 10.8%
- viability, T/C [31]: 54.7%
- viability, T/C [32]: 42.8%
- viability, T/C [33]: 41.8%
- viability, T/C [34]: 27.3%
- viability, T/C [35]: 13.7%
- viability, T/C [36]: 9.38%

- pIC50 (second compound 0.0316 µM): < 6.00
- pIC50 (second compound 0.1 µM): < 6.00
- pIC50 (second compound 0.316 µM): < 6.00
- pIC50 (second compound 1 µM): < 6.00
- pIC50 (second compound 3.16 µM): < 6.00
- pIC50 (second compound 10 µM): 8.28
Compound: CCN1CCN(Cc2ccc(Nc3ncc(F)c(-c4cc(F)c5nc(C)n(C(C)C)c5c4)n3)nc2)CC1 + CC(Nc1ncnc2nc[nH]c12)c1cc2cccc(Cl)c2c(=O)n1-c1ccccc1
- viability, T/C [37]: 95.3%
- viability, T/C [38]: 82.4%
- viability, T/C [1]: 75.6%
- viability, T/C [2]: 74.4%
- viability, T/C [3]: 67.2%
- viability, T/C [4]: 76.8%
- viability, T/C [39]: 81.7%
- viability, T/C [40]: 91.1%
- viability, T/C [7]: 73.1%
- viability, T/C [8]: 68.3%
- viability, T/C [9]: 74.9%
- viability, T/C [10]: 82.7%
- viability, T/C [41]: 87.5%
- viability, T/C [42]: 97.1%
- viability, T/C [13]: 73.2%
- viability, T/C [14]: 68.7%
- viability, T/C [15]: 69.8%
- viability, T/C [16]: 78.4%
- viability, T/C [43]: 79.1%
- viability, T/C [44]: 78.4%
- viability, T/C [19]: 59.9%
- viability, T/C [20]: 61.5%
- viability, T/C [21]: 61.4%
- viability, T/C [22]: 68.9%
- viability, T/C [45]: 70.7%
- viability, T/C [46]: 66.1%
- viability, T/C [25]: 56.3%
- viability, T/C [26]: 52.1%
- viability, T/C [27]: 60.1%
- viability, T/C [28]: 66%
- viability, T/C [47]: 51.5%
- viability, T/C [48]: 50.9%
- viability, T/C [31]: 41.2%
- viability, T/C [32]: 40.9%
- viability, T/C [33]: 40.6%
- viability, T/C [34]: 47.1%

- pIC50 (second compound 0.0316 µM): < 5.00
- pIC50 (second compound 0.1 µM): < 5.00
- pIC50 (second compound 0.316 µM): < 5.00
- pIC50 (second compound 1 µM): < 5.00
- pIC50 (second compound 3.16 µM): < 5.00
- pIC50 (second compound 10 µM): 5.32
Compound: C[C@@H](NC(=O)c1ncnc(N)c1Cl)c1ncc(C(=O)Nc2cc(C(F)(F)F)c(Cl)cn2)s1 + CC(Nc1ncnc2nc[nH]c12)c1cc2cccc(Cl)c2c(=O)n1-c1ccccc1
- viability, T/C [1]: 123%
- viability, T/C [2]: 112%
- viability, T/C [3]: 113%
- viability, T/C [4]: 120%
- viability, T/C [5]: 97.2%
- viability, T/C [6]: 84.1%
- viability, T/C [7]: 108%
- viability, T/C [8]: 129%
- viability, T/C [9]: 118%
- viability, T/C [10]: 118%
- viability, T/C [11]: 103%
- viability, T/C [12]: 68.7%
- viability, T/C [13]: 114%
- viability, T/C [14]: 114%
- viability, T/C [15]: 128%
- viability, T/C [16]: 119%
- viability, T/C [17]: 96.8%
- viability, T/C [18]: 70.1%
- viability, T/C [19]: 114%
- viability, T/C [20]: 102%
- viability, T/C [21]: 108%
- viability, T/C [22]: 113%
- viability, T/C [23]: 91.5%
- viability, T/C [24]: 72.8%
- viability, T/C [25]: 97%
- viability, T/C [26]: 90.9%
- viability, T/C [27]: 83.8%
- viability, T/C [28]: 79.2%
- viability, T/C [29]: 79.5%
- viability, T/C [30]: 61.5%
- viability, T/C [31]: 61.4%
- viability, T/C [32]: 62.4%
- viability, T/C [33]: 60.2%
- viability, T/C [34]: 59.5%
- viability, T/C [35]: 52.3%
- viability, T/C [36]: 43.9%

- pIC50 (second compound 0.0316 µM): < 7.00
- pIC50 (second compound 0.1 µM): < 7.00
- pIC50 (second compound 0.316 µM): < 7.00
- pIC50 (second compound 1 µM): < 7.00
- pIC50 (second compound 3.16 µM): < 7.00
- pIC50 (second compound 10 µM): 7.09
Compound: Cn1ncnc1[C@H]1c2n[nH]c(=O)c3cc(F)cc(c23)N[C@@H]1c1ccc(F)cc1 + CC(Nc1ncnc2nc[nH]c12)c1cc2cccc(Cl)c2c(=O)n1-c1ccccc1
- viability, T/C (second compound 0.0316 µM, first compound 0.000316 µM): 101%
- viability, T/C (second compound 0.0316 µM, first compound 0.001 µM): 99.9%
- viability, T/C [37]: 102%
- viability, T/C [38]: 112%
- viability, T/C [1]: 99.7%
- viability, T/C [2]: 96.8%
- viability, T/C (second compound 0.1 µM, first compound 0.000316 µM): 96.5%
- viability, T/C (second compound 0.1 µM, first compound 0.001 µM): 99.7%
- viability, T/C [39]: 94.4%
- viability, T/C [40]: 102%
- viability, T/C [7]: 98.4%
- viability, T/C [8]: 97.1%
- viability, T/C (second compound 0.316 µM, first compound 0.000316 µM): 93.5%
- viability, T/C (second compound 0.316 µM, first compound 0.001 µM): 99.4%
- viability, T/C [41]: 98%
- viability, T/C [42]: 101%
- viability, T/C [13]: 97.6%
- viability, T/C [14]: 99.3%
- viability, T/C (second compound 1 µM, first compound 0.000316 µM): 100%
- viability, T/C (second compound 1 µM, first compound 0.001 µM): 95.3%
- viability, T/C [43]: 90.4%
- viability, T/C [44]: 86.2%
- viability, T/C [19]: 86.2%
- viability, T/C [20]: 89.1%
- viability, T/C (second compound 3.16 µM, first compound 0.000316 µM): 70.3%
- viability, T/C (second compound 3.16 µM, first compound 0.001 µM): 77.9%
- viability, T/C [45]: 69.7%
- viability, T/C [46]: 65.5%
- viability, T/C [25]: 89.9%
- viability, T/C [26]: 67.2%
- viability, T/C (second compound 10 µM, first compound 0.000316 µM): 54.8%
- viability, T/C (second compound 10 µM, first compound 0.001 µM): 61.6%
- viability, T/C [47]: 55.3%
- viability, T/C [48]: 54%
- viability, T/C [31]: 55%
- viability, T/C [32]: 48.9%
